In US20170015649A1, “N-Thio-anthranilamid compounds and their use as pesticides” (BASF SE, priority 2005, published 2017):
Read-outs that look alike come from different tables or passages of the source.

Legend:
[1] = system: Southern Armyworm (Spodoptera eridania), 2nd Instar Larvae; experiment: whole plant or invertebrate; format: in vivo; conditions: in Phaseolus lunatus, foliar, 120 h
Method: The active compounds were formulated for testing the activity against insects and arachnids as a 10.000 ppm solution in a mixture of 35% acetone and water, which was diluted with water, if needed.
A Sieva lima bean leaf was dipped in the test solution and allowed to dry. The leaf was then placed in a petri dish containing a filter paper on the bottom and ten 2nd instar caterpillars. At 5 days, observations are made of mortality and reduced feeding.

[2] = system: Vetch Aphid (Megoura viciae); experiment: Activity against vetch aphid, bean leaf disks; format: in vivo; conditions: foliar, 144 h
Method: Bean leaf disks were placed into microtiterplates filled with 0.8% agar-agar and 2.5 ppm OPUS™. The leaf disks were sprayed with 2.5 μl of the test solution and 5 to 8 adult aphids were placed into the microtiterplates which were then closed and kept at 22-24° C. and 35-45% under fluorescent light for 6 days. Mortality was assessed on the basis of vital, reproduced aphids. Tests were replicated 2 times.

[3] = system: Cotton Aphid (Aphis gossypii); experiment: Activity against cotton aphid, cotton cotyledon dip; format: in vivo; conditions: 120 h, cotyledons dipped, after 5 days
Source text: (§1) The active compounds were formulated in 50:50 acetone:water and 100 ppm Kinetic™ surfactant.
Cotton plants at the cotyledon stage (one plant per pot) were infested by placing a heavily infested leaf from the main colony on top of each cotyledon. The aphids were allowed to transfer to the host plant overnight, and the leaf used to transfer the aphids was removed. The cotyledons were dipped in the test solution and allowed to dry. After 5 days, mortality counts were made.

[4] = system: Boll Weevil (Anthonomus grandis); experiment: Activity against boll weevil, eggs in microtiterplates; format: in vivo; conditions: eggs sprayed with 20 μl test solution, 3 to 5 days
Method: 10 to 15 eggs were placed into microtiterplates filled with 2% agar-agar in water and 300 ppm formaline. […] Mortality was assessed on the basis of the remaining unhatched eggs or larvae on the agar surface and/or quantity and depth of the digging channels caused by the hatched larvae. Tests were replicated 2 times.

[5] = system: Tobacco Budworm (Heliothis virescens); experiment: whole plant or invertebrate; conditions: 144 h
[6] = system: Mediterranean Fruitfly (Ceratitis capitata); experiment: Activity against Mediterranean fruitfly, eggs in microtiterplates; format: in vivo; conditions: 144 h, eggs sprayed with 5 μl test solution, 6 days
Method: 50 to 80 eggs were placed into microtiterplates filled with 0.5% agar-agar and 14% diet in water. […] Mortality was assessed on the basis of the agility of the hatched larvae. Tests were replicated 2 times.

[7] = system: Diamond Back Moth (Plutella xylostella); experiment: Activity against diamond back moth, cabbage leaf disk dip; format: in vivo; conditions: foliar
Method: The active compounds were formulated in 50:50 acetone:water and 0.1% (vol/vol) Alkamuls EL 620 surfactant. A 6 cm leaf disk of cabbage leaves was dipped in the test solution for 3 seconds and allowed to air dry in a Petri plate lined with moist filter paper. The leaf disk was inoculated with 10 third instar larvae and kept at 25-27° C. and 50-60% humidity for 3 days. Mortality was assessed after 72 h of treatment.

[8] = system: Silverleaf Whitefly (Bemisia argentifolii); experiment: Activity against silverleaf whitefly, cotton cotyledon dip; format: in vivo; conditions: 72 h, cotyledons dipped, adults, 3 days after treatment
Method: as §1
Selected cotton plants were grown to the cotyledon state (one plant per pot). The cotyledons were dipped into the test solution to provide complete coverage of the foliage and placed in a well-vented area to dry. Each pot with treated seedling was placed in a plastic cup and 10 to 12 whitefly adults (approximately 3-5 day old) were introduced. The insects were collected using an aspirator and an 0.6 cm, non-toxic Tygon™ tubing (R-3603) connected to a barrier pipette tip. The tip, containing the collected insects, was then gently inserted into the soil containing the treated plant, allowing insects to crawl out of the tip to reach the foliage for feeding. The cups were covered with a reusable screened lid (150 micron mesh polyester screen PeCap from Tetko Inc). Test plants were maintained in the holding room at about 25° C. and 20-40% relative humidity for 3 days avoiding direct exposure to the fluorescent light (24 hour photoperiod) to prevent trapping of heat inside the cup. Mortality was assessed 3 days after treatment of the plants.

[9] = 300 ppm, leaf dipped, at 5 days, read-out: mortality
[10] = 2500 ppm, leaf disks sprayed with 2.5 μl, 6 days, compared to 0% mortality of untreated controls, read-out: mortality
[11] = 300 ppm, leaf disk dipped, third instar larvae, after 72 h, read-out: mortality

SMILES	mortality at 300 ppm [1, 9] [%]	mortality at 2500 ppm [2, 10] [%]	mortality at 2500 ppm [4] [%]	mortality at 2500 ppm [5] [%]	mortality at 2500 ppm [6] [%]	mortality at 300 ppm [7, 11] [%]	mortality at 300 ppm [1] [%]	mortality at 300 ppm ([7]; 72 h) [%]	further results
Cc1cc(I)cc(C(=O)N=S(C)C)c1NC(=O)c1cc(C(F)(F)F)nn1-c1ncccc1Cl [I.3-23]	> 75	> 75	> 75	> 75	> 75	> 75			mortality at 300 ppm [3]: > 50%; mortality at 300 ppm [8]: > 90%
Cc1cc(Cl)cc(C(=O)NS(=O)(=O)N(C)C)c1NC(=O)c1cc(Br)nn1-c1ncccc1Cl [I.1-9]							> 75	> 75	
CCS(C)=NC(=O)c1cc(I)cc(C)c1NC(=O)c1cc(C(F)(F)F)nn1-c1ncccc1Cl (centres unmarked) [I.3-30]	> 75	> 75	> 75	> 75	> 75	> 75			mortality at 300 ppm [3]: > 50%; mortality at 300 ppm [8]: > 90%
Cc1cc(C#N)cc(C(=O)N=S(C)C)c1NC(=O)c1cc(Br)nn1-c1ncccc1Cl [I.3-60]						> 75			
CCS(C)=NC(=O)c1cccc(C)c1NC(=O)c1cc(C(F)(F)F)nn1-c1ncccc1Cl (centres unmarked) [I.3-29]	> 75	> 75	> 75	> 75	> 75	> 75			mortality at 300 ppm [3]: > 50%
Cc1cc(C#N)cc(C(=O)N=S(C)C)c1NC(=O)c1cc(C(F)(F)F)nn1-c1ncccc1Cl [I.3-55]		> 75	> 75	> 75	> 75	> 75			
Cc1cccc(C(=O)NS(=O)(=O)N(C)C)c1NC(=O)c1cc(Br)nn1-c1ncccc1Cl [I.1-30]							> 75		
Cc1cc(Cl)cc(C(=O)N=S2(=O)CCCCC2)c1CC(=O)c1cc(Br)nn1-c1ccccc1Cl [I.4-22, 2-{2-[5-Bromo-2-(2-chloro-phenyl)-2H-pyrazol-3-yl]-2-oxo-ethyl}-5-chloro-3-methyl-N-(1-oxo-hexahydro-1lambda*6*-thiopyran-1-ylidene)-benzamide]	> 75	> 75	> 75	> 75	> 75	> 75			
CCN(C)S(=O)(=O)NC(=O)c1cccc(C)c1NC(=O)c1cc(Br)nn1-c1ncccc1Cl [I.1-27]							> 75	> 75	
Cc1cc(Cl)cc(C(=O)NS(=O)(=O)N(C)C)c1NC(=O)c1cc(C(F)(F)F)nn1-c1ncccc1Cl [I.1-47]							> 75	> 75	
CCN(CC)S(=O)(=O)NC(=O)c1cccc(C)c1NC(=O)c1cc(C(F)(F)F)nn1-c1ncccc1Cl [I.1-53]				> 75			> 75		mortality at 2500 ppm [2]: > 75%
CCS(CC)=NC(=O)c1cc(Cl)cc(C)c1NC(=O)c1cc(Br)nn1-c1ncccc1Cl [I.3-3]	> 75	> 75	> 75	> 75					mortality at 300 ppm [3]: > 50%; mortality at 300 ppm [8]: > 90%
CCN(C)S(=O)(=O)NC(=O)c1cccc(C)c1NC(=O)c1cc(C(F)(F)F)nn1-c1ncccc1Cl [I.1-61]							> 75	> 75	
CCN(C)S(=O)(=O)NC(=O)c1cc(Cl)cc(C)c1NC(=O)c1cc(Br)nn1-c1ncccc1Cl [I.1-7]							> 75	> 75	
CCN(C)S(=O)(=O)NC(=O)c1cc(Cl)cc(C)c1NC(=O)c1cc(C(F)(F)F)nn1-c1ncccc1Cl [I.1-45]							> 75	> 75	
Cc1cccc(C(=O)N=S(C)C)c1NC(=O)c1cc(C(F)(F)F)nn1-c1ncccc1Cl [I.3-24]	> 75	> 75	> 75	> 75	> 75	> 75			mortality at 300 ppm [3]: > 50%
CCS(C)=NC(=O)c1cc(C#N)cc(C)c1NC(=O)c1cc(Br)nn1-c1ncccc1Cl (centres unmarked) [I.3-61]						> 75			
